Experimental data as given in US8614206B2 (Genentech, Inc., priority 2011, dated 2013).
Read-outs that look alike come from different tables or passages of the source.

How the values were obtained:
[1] = system: MM1.S (multiple myeloma) cells; assay: In vitro cell proliferation, MM1.S multiple myeloma cells (CellTiter-Glo, ATP); format: cell-based; details: Homo sapiens, MM1.S, 72 h, read-out: Prolif MM1S ATP (EC50)
In short: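 BaF3 parental cells (medium with 2 ng/mL mIL-3) seeded at 2 k/well and MM1.S at 10 k/well, then exposed to test compound at 37° C, 5% CO2: BaF3 overnight, MM1.S for 72 hours. Viability read by CellTiter-Glo; IC50/EC50 values calculated.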

BaF3 PIM1 cells = assay: cells; details: Mus musculus
Method: (§1) BaF3 parental line was obtained from the DSMZ repository. BaF3 lines transfected with PIM 1 or PIM2 were generated. Mouse IL-3 was purchased from R&D Systems. G418 was purchased from Clontech. Media for BaF3 parental line contained RPMI, 10% FBS, 2 mM L-Glutamine, 2 ng/mL mIL-3. Media for BaF3 PIM1 & 2 lines contained RPMI, 10% FBS, 2 mM L-Glutamine, 250 μg/mL.
(§2) BaF3, a murine interleukin-3 dependent pro-B cell line, parental cells, BaF3 PIM1 cells, BaF3 PIM2 cells, and MM1.S (multiple myeloma) cells were seeded at 2 k/well, 5 k/well, 5 k/well, and 10 k/well respectively, in a 384-well plate, at 45 μL/well. Test compound was added at 5 μL/well. BaF3 cells (parental and transfected) were incubated overnight, while MM1.S cells were incubated for 72 hours at 37° C., 5% CO2. CELL TITER GLO® Reagent (Promega) was added at 50 μL/well, the plates were incubated for 30 minutes, and their luminescence read on an HT Analyst. IC50/EC50 values for the test compound were calculated.

BaF3 parental cells = assay: In vitro cell proliferation, BaF3 parental line + IL3 (CellTiter-Glo); format: cell-based, murine; details: Mus musculus, BaF3, BaF3 parental cells with IL-3, incubated overnight
Method: as §1, §2

PIM1 = PIM1 (Homo sapiens (Human), UniProt P11309); assay: Pim kinase inhibition, PIM1 LC3K (Example 901); format: biochemical
From the text: Determination of the Pim kinase activity of a Formula I compound is possible by a number of direct and indirect detection methods.

[2] = BaF3, read-out: Prolif BaF3_PIM1 (IC50), BaF3 PIM1 cells, incubated overnight
[3] = read-out: Prolif BaF3 + IL3 (IC50)
[4] = BaF3, read-out: Prolif BaF3 PIM1 (IC50), BaF3 PIM1 cells, incubated overnight
[5] = read-out: Prolif BaF3 IL3 (IC50)

Chain of PIM1 (P11309 whole entry): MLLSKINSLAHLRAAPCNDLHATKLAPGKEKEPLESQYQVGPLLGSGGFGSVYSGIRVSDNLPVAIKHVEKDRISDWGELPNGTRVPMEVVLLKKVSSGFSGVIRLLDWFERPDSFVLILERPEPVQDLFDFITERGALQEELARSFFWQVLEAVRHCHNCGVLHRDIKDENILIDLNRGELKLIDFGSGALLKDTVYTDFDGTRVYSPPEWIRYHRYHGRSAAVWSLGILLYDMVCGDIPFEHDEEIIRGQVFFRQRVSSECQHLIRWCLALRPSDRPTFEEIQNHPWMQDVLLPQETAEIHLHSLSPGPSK

| EC50 [1] | IC50 (BaF3 PIM1 cells; [2]) | Ki (PIM1) | IC50 (BaF3 PIM1 cells; [4]) | Structure (SMILES) | IC50 (BaF3 parental cells; [3]) | IC50 (BaF3 parental cells; [5]) |
| --- | --- | --- | --- | --- | --- | --- |
| 3900 nM | 38.8 nM | 0.121 nM | – | Cn1ncc(NC(=O)c2nc(-c3c(F)cncc3F)sc2N)c1N1CC[C@H](N)[C@@H](F)CC1 (racemic) [Example 439, 5-amino-N-(5-((4S,5S)-4-amino-5-fluoroazepan-1-yl)-1-methyl-1H-pyrazol-4-yl)-2-(3,5-difluoropyridin-4-yl)thiazole-4-carboxamide] | 16200 nM | – |
| 77.4 nM | 15.2 nM | 0.024 nM | – | COC1(C)CC(N)CCN(c2c(NC(=O)c3nc(-c4c(F)cncc4F)sc3N)cnn2C)C1 (racemic) [Example 440, 5-amino-N-[5-(5-amino-3-methoxy-3-methyl-azepan-1-yl)-1-methyl-pyrazol-4-yl]-2-(3,5-difluoro-4-pyridyl)thiazole-4-carboxamide] | > 25000 nM | – |
| 39.3 nM | 13.1 nM | 0.027 nM | – | COC1(C)CC(N)CCN(c2c(NC(=O)c3nc(-c4ccncc4F)sc3N)cnn2C)C1 (racemic) [Example 441, 5-amino-N-[5-(5-amino-3-methoxy-3-methyl-azepan-1-yl)-1-methyl-pyrazol-4-yl]-2-(3-fluoro-4-pyridyl)thiazole-4-carboxamide] | > 25000 nM | – |
| 167 nM | 152 nM | 0.0647 nM | – | Nc1sc(-c2c(F)cccc2F)nc1C(=O)Nc1cnn(C2CC2)c1N1CCC(N)C(F)CC1 (single isomer, unassigned) [Example 331, 5-amino-N-[5-(4-amino-5-fluoro-azepan-1-yl)-1-cyclopropyl-pyrazol-4-yl]-2-(2,6-difluorophenyl)thiazole-4-carboxamide] | 13400 nM | – |
| 9200 nM | 4.51 nM | 0.01 nM | – | Cn1ncc(NC(=O)c2nc(-c3ccncc3F)sc2N)c1N1CC[C@H](N)CC(F)(F)C1 (single isomer, unassigned) [Example 446] | 23500 nM | – |
| 3700 nM | 2.17 nM | 0.023 nM | – | Cn1ncc(NC(=O)c2nc(-c3c(F)cncc3F)sc2N)c1N1CC[C@H](N)CC(F)(F)C1 (single isomer, unassigned) [Example 454] | 17900 nM | – |
| 6200 nM | 737 nM | 0.045 nM | – | Cn1ncc(NC(=O)c2nc(-c3ccccc3F)sc2N)c1N1CCNC[C@]2(CCO2)C1 (single isomer, unassigned) [Example 480] | 7100 nM | – |
| 5600 nM | 64.8 nM | 0.086 nM | – | Cn1ncc(NC(=O)c2nc(-c3c(F)cncc3F)sc2N)c1N1CC[C@H](N)[C@@H](F)CC1 (stereo in doubt) [Example 472, 5-amino-N-[5-[(4S,5S)-4-amino-5-fluoro-azepan-1-yl]-1-methyl-pyrazol-4-yl]-2-(3,5-difluoro-4-pyridyl)thiazole-4-carboxamide] | 18500 nM | – |
| 1900 nM | – | 0.03 nM | 566 nM | Cn1ncc(NC(=O)c2nc(-c3cc(F)ccc3F)sc2N)c1N1CCNCC(F)(F)C1 [Example 106, 5-Amino-N-(5-(6,6-difluoro-1,4-diazepan-1-yl)-1-methyl-1H-pyrazol-4-yl)-2-(2,5-difluorophenyl)thiazole-4-carboxamide] | – | 15600 nM |
| 388 nM | – | 0.079 nM | 157 nM | CN[C@@H]1CCCN(c2c(NC(=O)c3nc(-c4c(F)cccc4F)sc3N)cnn2CC(F)F)CC1 [Example 107, (R)-5-Amino-N-(1-(2,2-difluoroethyl)-5-(4-(methylamino)azepan-1-yl)-1H-pyrazol-4-yl)-2-(2,6-difluorophenyl)thiazole-4-carboxamide] | – | 5100 nM |
| 1400 nM | – | 0.43 nM | 326 nM | CN[C@@H]1CCCN(c2c(NC(=O)c3nc(-c4cc(F)ccc4F)sc3N)cnn2CC(F)F)CC1 [Example 108, (R)-5-Amino-N-(1-(2,2-difluoroethyl)-5-(4-(methylamino)azepan-1-yl)-1H-pyrazol-4-yl)-2-(2,5-difluorophenyl)thiazole-4-carboxamide] | – | 4900 nM |
